Assay results from US20230114264A1, “ACTIVATION OF LYTIC GENES IN CANCER CELLS” (priority 2020, published 2023).

Tested on: BGLF4
Assay: BGLF4 gRNA transfection into C666-1 cells, Western blotting
Type: cell-based, Epstein-Barr virus (EBV)
Details: FIG. 12B
Procedure: BGLF4 gRNAs were tested for triggering EBV reactivation in C666-1 cells expressing HA-dCas9-EGFP and 3×FLAG-pUFa-p65HSF1. Seven EBV genomic loci at the BGLF4 promoter were used to design the gRNAs for BGLF4 induction (gRNA (1), gRNA (2), gRNA (3), gRNA (4), gRNA (5), gRNA (6), and gRNA (7)). Individual BGLF4 gRNAs were transfected into cells and the induction of BGLF4 protein expression was studied by Western blotting. […] To study the combination effects of BGLF4 gRNAs, BGLF4 gRNAs were transfected into cells individually or in combination. […] As a positive control of EBV reactivation, the C666-1 cells were treated with the chemical inducer Gemcitabine to trigger EBV reactivation.

## Nc1ccn([C@@H]2O[C@H](CO)[C@@H](O)C2(F)F)c(=O)n1 [Gemcitabine]
  EBV reactivation (BZLF1 expression): implied the trigger of EBV reactivation
